From US10039839B2, “Compounds that participate in cooperative binding and uses thereof” (Warp Drive Bio, Inc., priority 2015, dated 2018)
Square brackets hold non-standard residues; d marks the D form. Peptide text beside a SMILES is read from it. MeBmt = C/C=C/C[C@@H](C)[C@@H](O)[C@H](NC)C(=O)O; NMeF = CN[C@@H](Cc1ccccc1)C(=O)O; NMeL = CN[C@@H](CC(C)C)C(=O)O; NMeV = CN[C@H](C(=O)O)C(C)C; Abu = CC[C@H](N)C(=O)O; Sar = CNCC(=O)O

Tests used:
[1] = test system: HeLa-Cyclophilin A cells; assay: Biosensor cell permeability assay, cyclophilin binding compounds; format: cell-based; conditions: 72 hrs
Protocol: (§1) This protocol utilizes a modified FKBP or cyclophilin destabilizing mutant to determine the bioactivity of FKBP binding compounds or cyclophilin binding compounds in whole cell assay.
(§2) Plate HeLa-FKBP12 cells (for FKBP binding compounds) or HeLa-Cyclophilin A cells (for cyclophilin binding compounds) and seed overnight at 5 k/well (approximately ˜18 hrs.). Using a multi-channel pipet, take out the old media and add ˜125 ul of new media with compounds. Compounds are diluted using DMEM without Phenol Red, 10% FBS, 1× Sodium Pyruvate, 1× Glutamax. Add 125 ul of media with compound per well.
(§3) Cell binding/permeability is calculated in fold-change (Total RFU of treated samples/total RFU of DMSO treated samples or total RFU above background (Total RFU minus total RFU of DMSO treated samples).

[2] = biological target: T1, CEP250 (Homo sapiens, UniProt Q9BV73); assay: SPR binding of CEP250 (analyte) to immobilized FKBP12-F2 binary complex
T1 construct: CEP25011.4 (residues 2134-2231) (in-house); made in house
Protocol: Experiments are performed at 25° C.

[3] = biological target: T1, CEP250; assay: ITC binding of FKBP12-compound binary complexes to CEP250; conditions: FKBP12 10 μM + ligand 20 μM, 298 K
Protocol: This protocol utilizes Isothermal Titration calorimetry (ITC) to directly measure the heat change associated with binding of FKBP12-F2 and FKBP12-F11 binary complexes to CEP250. Measurement of the heat change allows accurate determination of association constants (Ka), reaction stoichiometry (N), and the change in binding enthalpy (ΔH).
FKBP12 stock solution is diluted to 10 μM in assay buffer (1% DMSO final). Compound is added to FKBP12 to 20 μM (1% DMSO final), and binary complex is filled into the reaction cell of the ITC device after 5-10 min pre-incubation time. […] A control experiment in the absence of compound is also run to determine the heat associated with operational artifacts and the dilution of titrant as it is injected from the syringe into the reaction cell.
Data were fitted with the Origin ITC200 software according to the following procedure: • 1) Read raw data • 2) In “mRawITC”: adjust integration peaks and baseline, integrate all peaks • 3) In “Delta H”—data control: remove bad data (injection #1 and other artifacts), subtract straight line (background subtraction) • 4) In “Delta H”—model fitting: select one set of sites model, perform fitting with Levenberg-Marquardt algorithm until Chi Square is not reduced further, finish with “done” (parameters N, Ka and ΔH are calculated based on fitting)

[4] = test system: HeLa-FKBP12 cells; assay: Biosensor cell permeability assay, FKBP binding compounds; format: cell-based; conditions: 72 hrs
Protocol: as §1
as §2, with “well. Cells are treated with compounds at concentration: 30, 10, 3.33, 1.11, 0.37, 0.12, 0.04 and 0.013 uM. Time points are taken at 72 hrs and plate read using plate reader with excitation/emission: 575/620.” for “well.”
as §3

[5] = biological target: T2, FKBP12 (Homo sapiens, UniProt P62942); assay: AlphaLISA: inhibition of binding of biotinylated FK506 to FLAG tagged FKBP12; set-up: made in house
Protocol: This protocol utilizes Perkin Elmers AlphaLISA technology platform to detect FKBP binders by measuring the inhibition of binding of biotinylated FK506 to FLAG tagged FKBP12.
Add 20 uL of 12.5 nM FKBP-FLAG working stock to each well of the 96-well plate. Add 1 uL of test compound (100% DMSO) to each well of the plate using the Janus MTD head and P20 tips (except control wells). Add 1 uL of DMSO to negative control wells and 1 uL of 50 uM FK506 solution to positive control wells. In the dark, add 20 uL of combined Donor/Acceptor beads to each well. Incubate in the dark for 30 minutes at room temperature. In the dark, add 10 uL of 5 nM biotinylated FK506 working stock to each well. Incubate in the dark for 60 minutes at room temperature. Protect plate from light until reading on Biotek Synergy2 Plate Reader; Alphalisa 96-well protocol (680 excitation/615 emission).

[6] = biological target: T2, FKBP12
Protocol: This protocol utilizes Surface Plasmon Resonance (SPR) as a method to determine kinetics (KD, Ka, Kd) for the binding of compound (analyte) to immobilized FKBP12 (ligand).
Experiments are performed at 25° C. Stock solution of 12×HIS tagged FKBP12 is diluted to 100 nM in assay buffer (1% DMSO final). Approximately 500-600 RU of FKBP12 is immobilized on one of two flow cells of an activated NTA chip. The second flow cell is not activated as a reference for non-specific interaction of the analyte to the sensor chip. Various concentrations of compound (1 nM-1 μM range), serially diluted into the same assay buffer (1% DMSO final), are injected onto the FKBP12 surface and reference surface at a flow rate of 10 μl/min. The surface is regenerated between analyte injections with 350 mM EDTA.
The BiaEvaluation software program is used for data fitting. All data is reference subtracted against both the reference flow cell and a buffer injection. For kinetic analyses, data is locally fit to a 1:1 interaction model.
Experiments are performed at 25° C. Stock solution of 12×HIS tagged FKBP12 is diluted to 100 nM in assay buffer (1% DMSO final). Approximately 500-600 RU of FKBP12 is immobilized on one of two flow cells of an activated NTA chip. The second flow cell is not activated as a reference for non-specific interaction of the analyte to the sensor chip.

[7] = biological target: T3, CEP250 (Homo sapiens, UniProt P62942+Q9BV73); assay: Crystal structure analysis of FKBP12-compound-CEP250 ternary complexes; conditions: FKBP12-compound-CEP25011.4 crystal structure
T3 construct: CEP25011.4 (residues 2134-2231) (in-house); made in house
Source text: As used herein, the term “buried surface area” refers to the surface area of a protein or a complex that is not exposed to solvent. Buried surface area may be determined by methods known in the art including by calculating inaccessibility to solvent. Inaccessibility to solvent may be calculated computationally with a rolling probe of 1.4 A, using a program such as PDBePISA release version 1.48 (http://www.ebi.ac.uk/pdbe/pisa/).
This protocol describes the crystallization and structure determination method for structures of FKBP12-Compound 2-CEP250 and FKBP12-F11-CEP250 ternary complexes.
A 3:1 molar excess of FKBP12-F2 or FKBP12-F11 binary complex is added to CEP25011.4 and incubated at 4° C. overnight to complete ternary complex formation. Pure ternary complex is isolated by gel filtration purification on a Superdex 200 column in 12.5 mM HEPES pH 7.4, 75 mM NaCl. Purified complex (at 10-20 mg/ml) is subjected to crystallization at 22° C. using sitting drop vapor diffusion. FKBP12-F2-CEP250 crystals grow in a well solution containing 0.2 M sodium malonate, 0.1 M HEPES 7.0, 21% PEG 3350. FKBP12-F11-CEP250 crystals grow in a well solution containing 0.1 M Tris pH 8.5, 0.2 M trimethylamine N-oxide, 22-24% PEG2000 MME. For data collection crystals are transferred to a solution containing mother liquor supplemented with 20-25% glycerol, and then frozen in liquid nitrogen. Diffraction datasets are collected at the Advanced Photon Source (APS) and processed with the HKL program. Molecular replacement solutions are obtained using the program PHASER in the CCP4 suite, using the published structure of FKBP12 (PDB-ID 1FKD) as a search model. Subsequent model building and refinement are performed according to standard protocols with the software packages CCP4 and COOT.

[8] = FKBP12/F2 complex to CEP25011.4 (residues 2134-2231)
[9] = FKBP12/F2 complex to CEP25029.2 (residues 1982-2231)

T3 sequence (Q9BV73 2134-2231): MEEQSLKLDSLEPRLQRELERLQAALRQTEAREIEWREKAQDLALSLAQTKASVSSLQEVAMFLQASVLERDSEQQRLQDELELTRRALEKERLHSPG
T3 sequence (P62942 whole entry, the tested form may be a part): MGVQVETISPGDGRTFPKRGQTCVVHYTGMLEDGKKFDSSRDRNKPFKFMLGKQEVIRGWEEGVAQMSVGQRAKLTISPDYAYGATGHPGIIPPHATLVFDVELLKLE
T2 sequence (P62942 whole entry, species assumed): as the sequence (P62942 whole entry, the tested form may be a part) above

C/C=C/C[C@@H](C)[C@@H](O)[C@H]1C(=O)N[C@@H](CC)C(=O)N(C)CC(=O)N(C)[C@@H](Cc2ccccc2)C(=O)N[C@@H](C(C)C)C(=O)N(C)[C@@H](CC(C)C)C(=O)N[C@@H](C)C(=O)N[C@H](C)C(=O)N(C)[C@@H](CC(C)C)C(=O)N(C)[C@@H](CC(C)C)C(=O)N(C)[C@@H](C(C)C)C(=O)N1C [C36] (cyclo([MeBmt][Abu][Sar][NMeF]V[NMeL]A[dA][NMeL][NMeL][NMeV]))
IC50 [1]: < 3000 nM

CC[C@H](Cc1ccccc1)[C@@H]1/C=C/C/C=C/C[C@@H](C)[C@H](O)[C@@H](C)[C@@H]2CC[C@@H](C)C(=O)C(O)(O2)C(=O)N2CCCC[C@H]2C(=O)O1 [F2, (2S)-1-((4R,7S)-7-((2R,3S,4R,6E,9E,11R,12R)-12-benzyl-3,11-dihydroxy-4-methyltetradeca-6,9-dien-2-yl)-2-hydroxy-4-methyl-3-oxooxepane-2-carbonyl)piperidine-2-carboxylic acid C-11 lactone]
dissociation rate constant (koff) [2, 8]: 3.09×10^−3 1/S | dissociation rate constant (koff) [2, 9]: 9.25×10^−5 1/S | Kd [2, 8]: 5.4 nM | Kd [2, 9]: 0.29 nM | ΔG ([3]; CEP25011.4 68 μM): −40.75 kJ*mol−mol−1 | ΔH ([3]; CEP25011.4 68 μM): −49.37 kJ*mol−mol−1 | −T*ΔS ([3]; CEP25011.4 68 μM): 8.62 kJ*mol−mol−1 | ΔG ([3]; CEP25029.4 118 μM): −38.41 kJ*mol−mol−1 | ΔH ([3]; CEP25029.4 118 μM): −52.21 kJ*mol−mol−1 | −T*ΔS ([3]; CEP25029.4 118 μM): 13.80 kJ*mol−mol−1

CC1=C\CC(O)CC(/C(C)=C/C(C)=C/C2C=CC(O)C(O)C2)OC(=O)C2CCCCN2C(=O)CC2(O)OC(C(C)C/C=C/CC(O)\C=C\1)C(C)CC2C (stereo not shown) [F6]
IC50 [4]: < 1000 nM | IC50 [5]: 60 nM | Kd [6]: 141 nM

COC1C=C(/C=C/C2OC(=O)C3CCCCN3C(=O)C3(O)OC(CCC(C)C3=O)C(C)C3CC4OC(CC(O)C2C)(O3)C(C)CC4C)CCC1O (stereo not shown) [F7]
IC50 [5]: 26 nM | Kd [6]: 120 nM

COC1C=C(/C=C/C2OC(=O)C3CCCCN3C(=O)C(=O)C3(O)OC(CCC3C)C(C)C3CC4OC(CC(O)C2C)(O3)C(C)CC4C)CCC1O (stereo not shown) [F8]
IC50 [5]: 10.6 nM | Kd [6]: 66 nM

COC1C(O)CCC(CC(C)C2CCC/C=C/C/C(C)=C/CC3OC(O)(C(=O)C(=O)N4CCCCC4C(=O)O2)C(C)CC3C)C1O (stereo not shown) [F9]
IC50 [4]: < 1000 nM | IC50 [5]: 0.3 nM | Kd [6]: 0.23 nM

CCC1/C=C(\C)C(O)CCC(C)/C=C/C(O)C(C)C2CCC(C)C(O)(O2)C(=O)C(=O)N2CCCCC2C(=O)OC2C=CC(=CC2O)/C=C(\C)C1 (stereo not shown) [F10]
IC50 [4]: > 1000 nM | IC50 [5]: 21.1 nM | Kd [6]: 17.2 nM

CC[C@H](Cc1ccccc1)[C@@H]1CCCCCC[C@@H](C)[C@H](O)[C@@H](C)[C@@H]2CC[C@@H](C)C(=O)C(O)(O2)C(=O)N2CCCCC2C(=O)O1 (stereo partly drawn) [F11, (2S)-1-((4R,7S)-7-((2R,3S,4R,11S,12R)-12-benzyl-3,11-dihydroxy-4-methyltetradecan-2-yl)-2-hydroxy-4-methyl-3-oxooxepane-2-carbonyl)piperidine-2-carboxylic acid C-11 lactone]
ΔG ([3]; CEP25011.4 68 μM): −40.36 kJ*mol−mol−1 | ΔH ([3]; CEP25011.4 68 μM): −47.78 kJ*mol−mol−1 | −T*ΔS ([3]; CEP25011.4 68 μM): 7.41 kJ*mol−mol−1 | ΔG ([3]; CEP25029.4 118 μM): −36.74 kJ*mol−mol−1 | ΔH ([3]; CEP25029.4 118 μM): −58.48 kJ*mol−mol−1 | −T*ΔS ([3]; CEP25029.4 118 μM): 21.73 kJ*mol−mol−1 | buried surface area of CEP250 contributed by FKBP12 [7]: 590 Å^2 | total buried surface area of CEP250 [7]: 831 Å^2 | total buried surface area of the ternary complex [7]: 1648 Å^2 | kon ([6]; read-out: Ka): 567000 M⁻¹ s⁻¹

C/C1=C\C2=CC(O)C(C=C2)OC(=O)C2CCCCN2C(=O)C(=O)C2(O)OC(CCC2C)C(C)C(O)/C=C/C(C)CCC(O)/C(C)=C/C(C)C1 (stereo not shown) [F12]
IC50 [4]: > 1000 nM | IC50 [5]: 36.3 nM | Kd [6]: 21.2 nM

COC1CC(/C=C(C)/C=C(\C)C2CC(O)C/C=C(C)/C=C/C(O)C/C=C/CC(C)C3OC(O)(CC(=O)N4CCCCC4C(=O)O2)C(C)CC3C)C=CC1O (stereo not shown) [F13]
IC50 [4]: > 1000 nM | IC50 [5]: 33.6 nM | Kd [6]: 106 nM

COC1CC(/C=C(C)/C=C(\C)C2CC(O)C/C=C(C)/C=C/C(=O)C/C=C/CC(C)C3OC(O)(CC(=O)N4CCCCC4C(=O)O2)C(C)CC3C)C=CC1O (stereo not shown) [F16]
IC50 [4]: > 1000 nM | IC50 [5]: 67.5 nM | Kd [6]: 290 nM

C/C1=C\CC2OC(O)(C(=O)C(=O)N3CCCCC3C(=O)OC(C(C)CC3CCC(O)C(O)C3)CCC/C=C/C1)C(C)CC2C (stereo not shown) [F17]
IC50 [4]: < 1000 nM | IC50 [5]: 0.26 nM | Kd [6]: 0.2 nM

CCC(/C=C(\C)C(O)CCC(C)/C=C/C(O)C(C)C1CCC(C)C(O)(C(=O)C(=O)N2CCCCC2C(=O)O)O1)C/C(C)=C/c1ccc(O)c(O)c1 (stereo not shown) [F18]
IC50 [4]: < 1000 nM | IC50 [5]: 229 nM

COC1CC(CC(C)C2CCC/C=C/C/C(C)=C/CC3OC(O)(C(=O)C(=O)N4CCCCC4C(=O)O2)C(C)CC3C)CCC1O (stereo not shown) [F19]
IC50 [4]: < 1000 nM | IC50 [5]: 0.22 nM

CC(=C\C1C=CC(O)C(O)C1)/C=C(\C)C1CC(O)CC1C(C)(O)/C=C/C(O)C/C=C/CC(C)C1OC(O)(CC(=O)N2CCCCC2C(=O)O)C(C)CC1C (stereo not shown) [F23]
IC50 [4]: > 1000 nM | IC50 [5]: 4690 nM
